This note sets out measurements from patent US8569578B1, “Generating transgenic potatoes with novel resistance to potato cyst nematodes by silencing nematode parasitism genes of CLE -1 and CLE-4s” (The United States of America, as represented by the …, priority 2009, dated 2013).

“Also recorded” adds a separate entry of the source.

Holding throughout (assay type): in vivo
For one series, the system named is potato roots. Nature of the series: in vitro root assay with synthetic CLE peptides on potato roots. To be noted: 10 μM peptide in assay medium, compared with no peptide or Ag-16p. An excerpt:
(§1) Mounting evidence supports that the conserved CLE motif represents the major functional domain of plant CLE proteins. Gr-CLE genes encode four different 12-aa CLE motifs (FIG. 1A). To examine the functional sufficiency of these nematode CLE motifs, we conducted in vitro root assays (Fiers et al. 2005) using synthetic dodecapeptides (GrCLE1-1-12p, GrCLE4-1-12p, GrCLE4-2-12p, and GrCLE4-3-12p) corresponding to the four CLE motifs of Gr-CLE proteins. A 16-aa peptide (Ag-16p) (Fiers et al. 2005) corresponding to the C-terminus of AGAMOUS that has no similarity with plant CLE motifs and a 12-aa CLV3 peptide (CLV3-12p) were used as negative and positive controls, respectively. In addition, several peptides, including a mutated GrCLE1-1 dodecapeptide (GrCLE1-1m-12p, with a Gly-to-Ala conversion as in clv3-1 and clv3-5 mutants), a 14-aa GrCLE1-1 peptide (GrCLE1-1-14p, with one additional N-terminal and one additional C-terminal residue compared to Gr-CLE1-1-12p), and three 13-aa peptides of GrCLE4-1-13p, GrCLE4-2-13p, and GrCLE4-3-13p (all contained an extra N-terminal lysine residue compared to the corresponding dodecapeptides), were synthesized and used in the in vitro root assays.
(§2) Peptides with a purity of >70% were synthesized (Sigma-Aldrich Corp., St. Louis, Mo., U.S.A) and dissolved in filter-sterilized 50 mM sodium phosphate buffer. Three Gr-CLE-1 related peptides were synthesized: GrCLE1-1-12p (12 aa, RVIPGGPDPLHN; SEQ ID NO: 12), GrCLE1-1m-12p (12 aa, RVIPGAPDPLHN; SEQ ID NO: 13, with a G-to-A conversion at position 6), and GrCLE1-1-14p (14 aa, KRVIPGGPDPLHNR; SEQ ID NO: 14). Six Gr-CLE-4 related peptides were synthesized: GrCLE4-1-12p (12 aa, RVAGAGPDPIHH; SEQ ID NO: 15), GrCLE4-1-13p (13 aa, KRVAGAGPDPIHH; SEQ ID NO: 16), GrCLE4-2-12p (12 aa, RAVPAGPDPKHH; SEQ ID NO: 17), GrCLE4-2-13p (13 aa, KRAVPAGPDPKHH; SEQ ID NO: 18), GrCLE4-3-12p (12 aa, RGAPAGPDP IHH; SEQ ID NO: 19), and GrCLE4-3-13p (13 aa, KRGAPAGPDPIHH; SEQ ID NO: 20). Positive and negative control peptides included CLV3-12p (12 aa, RTVPSGPDPLHH; SEQ ID NO: 21) and Ag-16p (16 aa, APNNHHYSSAGRQDQT; SEQ ID NO: 22) (Fiers et al., 2005).
(§3) For peptide treatments, seeds of wild-type Arabidopsis (Columbia-0) and potato, nonhost and host of G. rostochiensis, respectively, were surface-sterilized and plated on square plates (8-12 seeds per plate) containing the assay medium (Fiers et al. 2005, supra) with 10 μM of each peptide. Assay plates were placed vertically in a growth chamber and cultured at 23° C. for 16 h of light and 8 h of dark. The root length was measured from the base of the hypocotyl to the tip of the primary root at several time points after plating. Two independent experiments were conducted.

Series [1] deals with Arabidopsis (Columbia-0) roots. Kind of series: in vitro root assay with synthetic CLE peptides on Arabidopsis roots. The note with it: 10 μM peptide in assay medium, compared with no peptide or Ag-16p.
Source text: as §1, §2, §3

The subject of another series is potato hairy roots. Nature of the series: overexpression of Gr-CLE genes in potato hairy roots. The note with it: measured at 4, 6, 8 and 10 days after dissecting; compared with vector control. The source says:
To examine root meristems, primary root tips were excised from peptide treated Arabidopsis seedlings or from transgenic potato hairy roots and immediately mounted in water onto a glass slide. Roots were examined under an Olympus BX-50 microscope equipped with Nomarski optics and images were captured using a QImaging Retiga EXi digital CCD camera (QImaging, Surrey, BC, Canada). The root apical meristem (RAM) regions of individual primary roots that covered the distance from the position around the quiescent center to the position where elongated root cells immediately follow cytoplasm-dense meristematic cells were measured microscopically. The collected data were analyzed using the MetaMorph imaging analysis software (Universal Imaging Corporation, Downingtown, Pa., U.S.A.)
A. rhizogenes strain 15834 was transformed with individual transgene constructs of interest and used for the generation of potato hairy roots as described previously (Wang et al. 2007. Mol. Plant Pathol. 8:423-436) with some modifications. Potato stem pieces from tissue cultures were incubated with the transformed A. rhizogenes cell suspension for 10 mins, then transferred onto the callus induction medium containing 1×MS salts (Sigma-Aldrich), 26.7 μM Glycine, 4 μM Nicotinic Acid, 2.4 μM Pyridoxine HCL (Sigma-Aldrich), 1.2 μM Thiamine HCL (Sigma-Aldrich), 0.5 μM Folic Acid, 0.2 μM d-biotin (Sigma-Aldrich), 0.01% Myo-inositol (Acros, Morris Plains, N.J., U.S.A.), 3% sucrose, 0.001% 6-BAP (Sigma-Aldrich), 0.002% NAA (Sigma-Aldrich), and 1% agar and cultivated for four days at 24° C. without light. The infected stem pieces were then cultured on the propagation medium containing 1×MS salts, 1.2 mM NaH2PO4, 0.01% Myo-inositol, 0.1% Thiamine HCl, 3% sucrose, 1% agar, 50 μg/mL of kanamycin, and 238 μg/mL of timentin (GlaxoSmithKline). Timentin was used to inhibit the growth of A. rhizogenes 15834 and kanamycin was added to select for transformed roots. Approximately 12-15 days after root emergence, 1 cm-long root tips were dissected and cultured on vertical plates containing the propagation medium with 119 μg/mL of timentin and the root growth rate was measured at different time points.

Take “KRAVPAGPDPKHH (LRAVPAGPDPLHH; listed as Globodera rostochiensis) [GrCLE4-2-13p, 13 aa peptide with extra N-terminal lysine]”: the “suppression of root growth (length of main root)” value (from here on “suppression of root growth”) (in the series with potato roots; in series [1]) was “did not show activities on root suppression” throughout.

On to “KRGAPAGPDPIHH (LRGAPAGPDPIHH; listed as Globodera rostochiensis) [GrCLE4-3-13p, 13 aa peptide with extra N-terminal lysine]”, for which the “suppression of root growth” value (in the series with potato roots; in series [1]) was “did not show activities on root suppression” throughout.

“KRVAGAGPDPIHH (LRVAGAGPDPIHH; listed as Globodera rostochiensis) [GrCLE4-1-13p, 13 aa peptide with extra N-terminal lysine]”: the “suppression of root growth” value (in the series on potato roots; in series [1]) was “did not show activities on root suppression” throughout.

In the case of “KRVIPGGPDPLHNR (listed as Globodera rostochiensis) [GrCLE1-1-14p, 14 aa GrCLE1-1 peptide withone additional N-terminal and C-terminal residue]”, the figures for the “suppression of root growth” value (with potato roots; in series [1]) were “significantly shorter” and “significantly shorter; also recorded: comparable level of root suppression activity as GrCLE1-1-12p”, respectively.

Consider “RAVPAGPDPKHH (RAVPAGPDPLHH; listed as Globodera rostochiensis) [GrCLE4-2-12p, 12 aa Gr-CLE-4 related peptide]”, for which the “suppression of root growth” value is recorded as “significantly shorter” in the series on potato roots, “suppressed root growth” with potato roots (listed as Gr-CLE4-2-12p), “significantly shorter” in series [1] and “suppressed root growth” in series [1] (listed as Gr-CLE4-2-12p).

Turning to “RGAPAGPDP IHH (RGAPAGPDPIHH; listed as Globodera rostochiensis) [GrCLE4-3-12p, 12 aa Gr-CLE-4 related peptide]”, the “suppression of root growth” value (with potato roots; in series [1]) was “suppressed root growth; also recorded: significantly shorter” throughout.

As to “RVAGAGPDPIHH (listed as Globodera rostochiensis) [GrCLE4-1-12p, 12 aa Gr-CLE-4 related peptide]”, the “suppression of root growth” value (in the series with potato roots; in series [1]) was “suppressed root growth; also recorded: significantly shorter” throughout.

For “RVIPGAPDPLHN (listed as Globodera rostochiensis) [GrCLE1-1m-12p, mutated GrCLE1-1 dodecapeptide with a G-to-A conversion at position 6]”, the “suppression of root growth” value (in the series with potato roots; in series [1]) was “significantly shorter” each time.

B1: Gr-CLE-4-D: G. rostochiensis CLE gene of class Gr-CLE-4, cDNA SEQ ID NO: 6 (nucleic acid, listed as Globodera rostochiensis)
DNA: ATCATAATTTCCAAAATCCCAATAAAAGCTTCCTCAATAAAGTAAATATGGCCAAGAACGCAATGCTTTGCCTGCTAATTTTGAGCGTTGTTCTCGCTCTCGCATTTGCTACGAATAAAAAGGATGATGAAGAACCGGAGAACCATTCGACCGGCATTTTTGGAAAGGTCGGACGAGTTGTGACCGTGGCACTTGCGATGTCGTCTCGTCTGGGAGGGGCTAACGCAACCCGAGGAGGTGGAGCTGTATATGGAAGAAACTTGAAATCCAATCAATTGCCAAACAACAATTGGATGGCGCCACCTCCTCCAATGGCAATGAGAAGTGCCAAAGTCTATGATTCGAAACATTCTCCTGCTGAATATCTTAAAAAATTTGCTCAAGACTTTCGCCGAAAAACCGGCACGCACTCCCAGCGGCATCACGAAGAAACAACACTGGAACAGGAGAAGCGTGGAGCGCCAGCTGGGCCCGACCCAATACATCACCAAGATACAACATTTGAACAGGAGAAGCGTGGAGCGCCAGCTGGGCCCGACCCAATACATCACCAAGATACAACACTGGAACAGGAGAAGCGTGTAGCGGGAGCTGGGCCCGACCCAATACATCACCAAGATACAAAATTTGAACAGGAGAAGCGTGGAGCGCCAGCTGGGCCCGACCCAATACATCACTGATGCTCTTATTCACAATGCTAAAATATTTTAGACTATAGATAAATTGCTAGCAACAGATAAATGCCTATTCAT
Consider B1, for which, in the series on potato hairy roots, the “length of primary roots of transgenic potato hairy root lines” value is on record as “short root phenotype”.
